Patent EP2435019B1, “DODECA-2E,4E-DIENE AMIDES AND THEIR USE AS MEDICAMENTS AND COSMETICS” (Dr. August Wolff GmbH & Co. KG Arzneimittel, priority 2009, dated 2010)
Read-outs that look alike come from different tables or passages of the source.

What was measured:
[1] = biological target: T1, CB1 (Homo sapiens, UniProt P21554); assay: Radioligand displacement assay on CB1 receptor; format: binding; conditions: for Ki: displacement of 0.39 nM [3H]CP55,940, membrane recombinantly over-expressing CB1, read-out: Receptor affinity Ki CB1
T1 construct: purchased Perkin Elmer RBHCB1M
T1 sequence (P21554 whole entry): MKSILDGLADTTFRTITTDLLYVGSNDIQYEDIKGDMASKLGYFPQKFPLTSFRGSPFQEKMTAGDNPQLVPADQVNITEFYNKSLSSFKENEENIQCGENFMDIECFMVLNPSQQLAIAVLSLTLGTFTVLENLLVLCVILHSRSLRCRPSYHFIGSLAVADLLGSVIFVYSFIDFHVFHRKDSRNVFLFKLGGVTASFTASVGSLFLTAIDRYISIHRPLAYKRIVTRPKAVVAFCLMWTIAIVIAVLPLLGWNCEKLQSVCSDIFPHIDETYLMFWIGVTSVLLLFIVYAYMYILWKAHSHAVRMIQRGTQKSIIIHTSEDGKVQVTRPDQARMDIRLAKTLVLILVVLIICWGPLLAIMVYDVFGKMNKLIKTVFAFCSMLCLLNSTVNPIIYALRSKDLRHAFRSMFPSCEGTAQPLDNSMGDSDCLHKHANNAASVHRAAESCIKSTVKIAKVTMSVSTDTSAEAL
Experimental: (§1) For the CB1 receptor, binding experiments were performed in the presence of 0.39 nM of the radioligand [^3H]CP55,940 (168 Ci/mmol) (Perkin Elmer, Waltham, MA, US) at 30°C in siliconized glass vials together with 7.16 µg of membrane recombinantly over-expressing CB1 (No. RBHCB1M, Perkin Elmer, Waltham, MA, US), which was resuspended in 0.2 mL (final volume) binding-buffer (50 mM TRIS-HCl, 2.5 mM EGTA, 5 mM MgCl2, 0.5 mg/mL fatty acid free BSA, pH 7.4). Test compounds were present at varying concentrations and the nonspecific binding of the radioligand was determined in the presence of 10 µM CP55,940 (Tocris Cookson Ltd., Bristol, UK). After 1.5 h incubation, the suspension was rapidly filtered through 0.05% polyethylenimine pre-soaked GF/C glass fiber filters on a 96-well cell harvester and washed nine times with 0.5 mL ice-cold washing-buffer (50 mM TRIS-HCl, 2.5 mM EGTA, 5 mM MgCl2, 2% BSA, pH 7.4). Radioactivity on filters was measured with a Beckman LS 6500 scintillation counter in 3 mL Ultima Gold scintillation liquid (Perkin Elmer, Waltham, MA, US). Data collected from three independent experiments performed in triplicates were normalized between 100% and 0% specific binding for [^3H]CP55,940. […] Derived from the dissociation constant (KD) of [^3H]CP55,940 and the concentration-dependent displacement (IC50 value), inhibition constants (Ki) of competitor compounds were calculated using the Cheng-Prusoff equation [Ki = IC50/(1+ L/KD)].

[2] = Critical micelle concentration (CMC) measurement, dye micellization; format: physicochemical; conditions: fluorescein dye micellization in water, pH 6.9, room temperature
Experimental: Dye micellization was carried out with a modified version of the method described by Eliyahu et al., Novel dextran-spermine conjugates as transfecting agents: comparing water-soluble and micellar polymers. […] Experiments were carried out on 96-well microtiter plates (excitation at 485 nm, emission at 535 nm). Since the emission of fluorescein is pH-dependent, the pH of the mixture was kept constant at 6.9. The CMC range was determined as the concentration range where the first statistically significant increase in fluorescence was detected.

[3] = biological target: T2, FAAH (Sus scrofa, UniProt Q9TUI8); assay: Fatty acid amide hydrolase (FAAH) inhibition, pig brain homogenate (assay D); format: biochemical; conditions: 1 µM; pig brain homogenate (assay D)
T2 construct: 165 µl of diluted pig brain homogenate; from tissue; host or cells: pig brain homogenate
T2 sequence (Q9TUI8 1-579): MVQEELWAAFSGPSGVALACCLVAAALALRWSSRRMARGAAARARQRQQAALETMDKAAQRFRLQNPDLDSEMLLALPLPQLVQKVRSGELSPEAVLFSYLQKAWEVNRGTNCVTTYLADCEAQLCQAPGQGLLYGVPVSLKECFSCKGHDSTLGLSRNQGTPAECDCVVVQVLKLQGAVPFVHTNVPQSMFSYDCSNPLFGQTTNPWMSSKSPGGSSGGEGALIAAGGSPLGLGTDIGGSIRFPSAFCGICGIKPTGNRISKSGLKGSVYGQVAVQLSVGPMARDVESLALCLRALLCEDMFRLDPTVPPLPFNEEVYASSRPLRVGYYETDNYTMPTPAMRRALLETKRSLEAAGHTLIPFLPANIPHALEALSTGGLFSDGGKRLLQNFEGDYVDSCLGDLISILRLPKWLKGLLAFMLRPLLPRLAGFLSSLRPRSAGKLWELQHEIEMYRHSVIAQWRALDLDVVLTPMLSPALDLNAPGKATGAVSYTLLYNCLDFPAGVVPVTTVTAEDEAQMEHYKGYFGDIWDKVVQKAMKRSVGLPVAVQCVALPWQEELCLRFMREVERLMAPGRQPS
Experimental: FAAH activity was assessed using pig brain homogenate according to the method described by Omeir et al., Arachidonoyl ethanolamide-[1,2-14C] as a substrate for anandamide amidase. Life Sci. 1995;56(23-24):1999-2005, and adapted by Fowler et al., Ibuprofen inhibits rat brain deamidation of anandamide at pharmacologically relevant concentrations. Mode of inhibition and structure-activity relationship. J Pharmacol Exp Ther. 1997 Nov;283(2):729-34. Briefly, 10 µl of test compounds at the adequate concentration or solvent were incubated at 37°C for 20 min with 165 µl of diluted pig brain homogenate in 10 mM Tris-HCl and 1 mM EDTA, pH 7.6 (corresponding to 100 µg/ml of total protein), 1% w/v fatty acid free BSA (Sigma, San Louis, MO, US) and 25 µl of a mixture 1:1 of nonradioactive AEA [^3H]-AEA (60 Ci mmol^-1) (concentration in the assay was 2 µM). Successively, 400 µl of a mixture 1:1 (v/v) of methanol:chloroform was added at each sample and, after vigorous vortexing, aqueous and organic phases were separated by centrifugation at 10000 rpm for 10 min. The radioactivity associated to the [^3H]-ethanolamine (produced by FAAH-catalysed breakdown of [^3H]-AEA) was measured upon addition of 3 ml of Ultima Gold scintillation liquid (Perkin Elmer, Waltham, MA, US) to 200 µl of the aqueous (upper) phase, using a Beckman LS6500 scintillation counter. Results were expressed as % of FAAH activity vs. pig brain homogenate treated only with solvent.

[4] = system: Arachidonoylethanolamide Transport (AEAT); assay: Cellular uptake of [3H]-AEA in U937 cells (assay C); format: cell-based; conditions: Homo sapiens, U-937; [3H]-AEA uptake, assay C (Tables 2 and 3)
[5] = biological target: CB2 (Homo sapiens, UniProt P34972); assay: Radioligand displacement assay on CB2 receptor; format: binding; set-up: purchased Perkin Elmer RBXCB2M; conditions: for Ki: displacement of 0.11 nM [3H]CP55,940, membrane recombinantly over-expressing CB2, read-out: Receptor affinity Ki CB2
Chain of CB2 (P34972 whole entry): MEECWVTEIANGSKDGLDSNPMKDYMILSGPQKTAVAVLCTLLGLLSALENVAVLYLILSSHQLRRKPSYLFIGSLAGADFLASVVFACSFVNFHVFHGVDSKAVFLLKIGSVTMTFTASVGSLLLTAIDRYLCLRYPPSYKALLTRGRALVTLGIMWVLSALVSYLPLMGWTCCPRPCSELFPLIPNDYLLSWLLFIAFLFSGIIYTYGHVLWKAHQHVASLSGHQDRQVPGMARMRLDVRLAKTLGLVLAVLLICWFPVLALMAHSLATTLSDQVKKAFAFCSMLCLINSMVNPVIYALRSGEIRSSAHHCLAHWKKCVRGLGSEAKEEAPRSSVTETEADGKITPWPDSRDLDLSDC
Experimental: as §1
For CB2-receptor binding studies 3.8 µg of membrane recombinantly over-expressing CB2 (No. RBXCB2M, Perkin Elmer, Waltham, MA, US) were resuspended in 0.6 mL binding buffer (see above) together with 0.11 nM of the radioligand [^3H]CP55,940. The CB2-binding assay was conducted in the same manner as for CB1.

[6] = system: Arachidonoylethanolamide Transport (AEAT); assay: Cellular uptake of [3H]-AEA in U937 cells (assay C); format: cell-based, Human; conditions: Figure 1(b); mean ± SEM of 3 independent experiments; read-out: EC50 value, AEA re-uptake inhibition
Experimental: 5x10^5 cells were collected and suspended in 500 µL of sterile PBS (Sigma, San Louis, MO, US) using glass silanized tubes. Cells were pre-incubated 10 min at 37°C in presence of test compounds in a concentration range of 10^-8 - 10^-4 M or in presence of the same amount of solvent (control). Then a mixture of 50 nM [^3H]-AEA (60 Ci/mmol) (American Radiolabeled Chemicals, Inc., San Louis, MO, US) and 50 nM of nonradioactive AEA (Tocris Cookson Ltd., Bristol, UK) was added and samples were incubated at 37°C for different times in the range of 1-60 min. The reaction was stopped by rapid filtration over Whatman GF/C filters pre-soaked in 0,25 % BSA. […] The filters-bound radioactivity was measured using a Beckman LS6500 scintillation counter. Results were expressed as % of AEA uptake versus cells treated with solvent and the EC50 and IC50 values were calculated from the sigmoidal curves, which were generated using the GraphPad Prism (GraphPad Software, San Diego, CA, US).

[7] = system: [3H]-AEA uptake; assay: Cellular uptake of [3H]-AEA in human primary monocytes (assay C); format: cell-based; conditions: Figure 1(a), 1 µM
Experimental: • Figure 1: AEA re-uptake inhibition of 2E,4E-dieneamides 1 and 9 into human primary monocytes and U937 cells. […] Data are mean values ± SEM of 3 independent experiments in a sigmoidal dose-response curve. • Figure 2: Concentration-dependent effects of 4 and 5 on FAAH activity. […] The maximal inhibition (32%) of 5 was measured at 1 µM. Data are mean values ± SEM of 3 independent experiments. • Figure 3: Effects of low nM concentrations of N-alkylamide 7 on FAAH activity alone and in combination with the FAAH inhibitor URB597. […] Data are mean values ± SEM of 3 independent experiments. • Figure 4: 1 and 9 inhibit LPS-induced TNF-alpha release into culture medium (measured by ELISA). Human macrophages (10^6 cells) were stimulated with LPS (500 ng/ml) and treated with UCM707 and/or compounds 1 and 9 at 5 µM for 18 h. N = 3 ± SEM. • Figure 5: UCM707 (positive control) and compounds 1 and 9 diminish NO2^- production. Human macrophages (10^6 cells) were stimulated with LPS (500 ng/ml) and treated with UCM707 and/or compounds 1 and 9 at 5 µM for 18 h. Culture supernatants were assayed for nitrite levels, using the Griess reagent as a reflection of NO production. […]
Human lymphoma U937 cells were grown in RPMI 1640 medium (Invitrogen, Basel, Switzerland) supplemented with 10% fetal bovine serum, […] fungizone (amphotericin B), 100 units/ml penicillin, 100 µg/ml streptomycin, and 2 mM L-glutamine (all from Invitrogen) and selected for the cellular AEA uptake assay. […] The filters-bound radioactivity was measured using a Beckman LS6500 scintillation counter. Results were expressed as % of AEA uptake versus cells treated with solvent and the EC50 and IC50 values were calculated from the sigmoidal curves, which were generated using the GraphPad Prism (GraphPad Software, San Diego, CA, US).

[8] = system: NO2^- production; assay: NO2- production in LPS-stimulated human macrophages (Griess reagent); format: cell-based; conditions: Figure 5; LPS 500 ng/ml; 5 µM for 18 h
Experimental: (§2) • Figure 1: AEA re-uptake inhibition of 2E,4E-dieneamides 1 and 9 into human primary monocytes and U937 cells. […] Data are mean values ± SEM of 3 independent experiments in a sigmoidal dose-response curve. • Figure 2: Concentration-dependent effects of 4 and 5 on FAAH activity. […] The maximal inhibition (32%) of 5 was measured at 1 µM. Data are mean values ± SEM of 3 independent experiments. • Figure 3: Effects of low nM concentrations of N-alkylamide 7 on FAAH activity alone and in combination with the FAAH inhibitor URB597. […] Data are mean values ± SEM of 3 independent experiments. • Figure 4: 1 and 9 inhibit LPS-induced TNF-alpha release into culture medium (measured by ELISA). Human macrophages (10^6 cells) were stimulated with LPS (500 ng/ml) and treated with UCM707 and/or compounds 1 and 9 at 5 µM for 18 h. N = 3 ± SEM. • Figure 5: UCM707 (positive control) and compounds 1 and 9 diminish NO2^- production. Human macrophages (10^6 cells) were stimulated with LPS (500 ng/ml) and treated with UCM707 and/or compounds 1 and 9 at 5 µM for 18 h. Culture supernatants were assayed for nitrite levels, using the Griess reagent as a reflection of NO production. Results are the mean ± SEM of four independent experiments performed in duplicate • Figure 6: In CB receptor expressing human HaCaT keratinocytes (10^6 cells) UCM707 (control) 1 and 9 like the endocannabinoid anandamide (each 5 µM) inhibited tolerogen (10 µg/ml) induced chemokine IL-8 (6h stimulation and incubation). N = 3 ± SEM.

[9] = system: IL-8; assay: Induced chemokine IL-8 in HaCaT keratinocytes; format: cell-based, human; conditions: Figure 6, 5 µM, tolerogen 10 µg/ml, 6h
Experimental: as §2

SMILES | Ki [1] [nM] | CMC [2] [µM] | FAAH inhibition at 1 µM [3] | EC50 [4] [nM] | Ki [5] [nM] | affinity towards CB1 (in words) ([1]; summary of Table 3) | affinity towards CB2 (in words) ([5]; summary of Table 3) | EC50 [6] [nM] | [3H]-AEA uptake inhibition [7] | NO2^- production [8] | tolerogen induced chemokine IL-8 [9]
CCCCCCC/C=C/C=C/C(=O)N1CCCC1 [Compound D, (2E,4E)-1-(pyrrolidin-1-yl)dodeca-2,4-dien-1-one] | > 20000 | >5 | <10 % of control | > 10000 | < 10000 | – | – | – | – | – | –
CCCCCCC/C=C/C=C/C(=O)N1CCCCC1 [Compound E, (2E,4E)-1-(piperidin-1-yl)dodeca-2,4-dien-1-one] | 2190 ± 180 | >5 | <10 % of control | > 10000 | 2640 ± 224 | moderate affinity | moderate affinity | – | – | – | –
CCCCC/C=C\C/C=C\C/C=C\C/C=C\CCCC(=O)NCc1ccoc1 [UCM707, reference compound] | – | – | – | – | – | – | – | 1420 ± 296 | clearly less active | diminish | inhibited
CCCCC/C=C\C/C=C\C/C=C\C/C=C\CCCC(=O)NCCO [anandamide, N-arachidonoylethanolamide, reference compound] | – | – | – | – | – | – | – | – | – | – | inhibited
